What was measured:
[1] = test system: Hippocampal Cell Line (HT22); experiment: Glutamate-induced oxidative toxicity in hippocampal cell line (HT22): mitochondrial membrane potential by JC-1 fluorescence ratio; type: cell-based, mouse; details: 10^-7 M compound; for protection against glutamate-mediated damage to the mitochondria (in words) / JC-1 ratio B (+glutamate 5 mM) / JC-1 ratio A (control conditions): HT-22 cells; for protection against glutamate-mediated damage to the mitochondria (in words): 5 mM glutamate; for JC-1 ratio B (+glutamate 5 mM) / JC-1 ratio A (control conditions): 24h, fluorescence ratio 530/590:480/530; for JC-1 ratio A (control conditions): control conditions (no glutamate); for effect on mitochondrial membrane potential of the control cells (in words): HT-22 control cells without glutamate; for JC-1 ratio B/A (%): ratio of +glutamate 5 mM to control conditions
Experimental: Table 1: Effects of ML Compounds of the Invention on Glutamate-induced Oxidative Toxicity in Hippocampal Cell Line (HT22)
The changes in the mithochondrial membrane potential was assessed using the fluorescent probe 5,5′,6,6′-tetrachloro-1,1′,3,3′-tetraethylbenzimidazolcarbocyanine iodide (JC-1) according to Nuydens et al, 1999, L of Neuroscience; 92, 153-9. Immortalized mouse hipocampal cells (HT-22) were maintained in Dulbecco's modified minimal essential medium (DMEM) supplemented with 10% fetal bovine serum and passaged by trypsinization. Cells (3000 per 96 palte well) were cultured for 24h with DMEM containing 5 mM glutamate and were treated with 10^−7 M of the ML compounds. Cells were then loaded with JC-1 by changing the culture medium to Phosphate buffered saline (PBS) containing 1 g/L glucose and 10 uM JC-1 for 10 mln. at 37° and were washed once. Flouresence was then measured in a plate reader at excitation/emission wavelengths of 480/530 nm and 530/590 nm. The ratio of the fluoresence intensities in the two wavelengths 530/590:480/530 is an indication of the mitochondrial membrane potential. Decrease in this ratio indicates depolarization of the mitochondrial membrane due to damage induced by anoxic or other phathological situations leading to apoptosis of cells.

[2] = test system: 125I-Melatonin Binding in Membranes of Hamster Brain; experiment: 125I-Melatonin binding in membranes of hamster brain (competition); details: for inhibition of the specific 125I-melatonin binding: 10^-6M; for % bound at competitor concentration 10-6M / 125I-melatonin bound at competitor concentration 10-6M: competitor 10^-6M; for % bound at competitor concentration 10-6M / % bound at competitor concentration 10-7M: relative to competitor concentration 0; for 125I-melatonin bound at competitor concentration 10-6M / 125I-melatonin bound at competitor concentration 10-7M: 125I-melatonin 250 pM, 37° C., 60 min, radioactivity, unit not given; for % bound at competitor concentration 10-7M / 125I-melatonin bound at competitor concentration 10-7M: competitor 10^-7M
Experimental: ^125I-Melatonin Binding in Membranes of Hamster Brain
2 whole hamster brains were homogenized with Teflon-glass homogenizer in 10 vol/g tissue of ice cold Tris-HCl buffer (50 mmol/L Tris, 5 mmol/L CaCl2, pH=7.4) and spun at 10,000 g for 10 min. the supernatant were spun at 100,000 g for two hours to yield a crude synaptosomal pellet (P2).
Aliquots of suspended P2 (20 ul) were incubated at 37° C. with ^125I-melatonin (250 pM) for 60 mln. in Tris-Hcl buffer in the absence or presence of 1 nM-100 μM test-substances (ML compounds and melatonin). The binding reaction was terminated by the addition of 4 ml ice cold Tris buffer. Membranes were then collected by vacuum filtration using GF/C glass fiber filters and washed with 3×4 ml ice-cold buffer. The filters containing the bound ^125I-melatonin were assayed for the amount of radioactivity in a γ counter. […] ML-29, ML-30 and ML-31 (10^−6M) inhibited (≧20%) the specific ^125I-melatonin binding. ML-27, ML-28 and ML-23 reduced the specific ^125I-melatonin binding to a lesser extent (˜13%).

Structure (SMILES): COc1ccc2[nH]cc(CCNc3ccc([N+](=O)[O-])cc3[N+](=O)[O-])c2c1 [ML-23, N-(2,4-dinitrophenyl)-5-methoxytryptamine, reference compound]
- protection against glutamate-mediated damage to the mitochondria (in words) [1]: significantly protected
- JC-1 ratio B (+glutamate 5 mM) [1]: 1.97
- JC-1 ratio A (control conditions) [1]: 2.19
- effect on mitochondrial membrane potential of the control cells (in words) [1]: did not decrease
- JC-1 ratio B/A (%) [1]: 90%
- inhibition of the specific 125I-melatonin binding [2]: ~13%
- % bound at competitor concentration 10-6M [2]: 87%
- 125I-melatonin bound at competitor concentration 10-6M [2]: 403
- % bound at competitor concentration 10-7M [2]: 94%
- 125I-melatonin bound at competitor concentration 10-7M [2]: 435

Structure (SMILES): O=[N+]([O-])c1ccc(NCCc2c[nH]c3ccccc23)c([N+](=O)[O-])c1 [ML-25, N-(2,4-dinitrophenyl)tryptamine]
- protection against glutamate-mediated damage to the mitochondria (in words) [1]: significantly protected
- JC-1 ratio B (+glutamate 5 mM) [1]: 2.01
- JC-1 ratio A (control conditions) [1]: 2.21
- effect on mitochondrial membrane potential of the control cells (in words) [1]: did not decrease
- JC-1 ratio B/A (%) [1]: 91%
- % bound at competitor concentration 10-6M [2]: 91%
- 125I-melatonin bound at competitor concentration 10-6M [2]: 390
- % bound at competitor concentration 10-7M [2]: 92%
- 125I-melatonin bound at competitor concentration 10-7M [2]: 396

Structure (SMILES): CC(=O)Nc1cc(NCCc2c[nH]c3ccccc23)c([N+](=O)[O-])cc1[N+](=O)[O-] [ML-26, 2,4-dinitro-5-tryptylaminoacetanilide]
- protection against glutamate-mediated damage to the mitochondria (in words) [1]: significantly protected
- JC-1 ratio B (+glutamate 5 mM) [1]: 2.11
- JC-1 ratio A (control conditions) [1]: 2.16
- effect on mitochondrial membrane potential of the control cells (in words) [1]: did not decrease
- JC-1 ratio B/A (%) [1]: 98%
- % bound at competitor concentration 10-6M [2]: 99%
- 125I-melatonin bound at competitor concentration 10-6M [2]: 411
- % bound at competitor concentration 10-7M [2]: 104%
- 125I-melatonin bound at competitor concentration 10-7M [2]: 435

Structure (SMILES): Nc1cc(NCCc2c[nH]c3ccccc23)c([N+](=O)[O-])cc1[N+](=O)[O-] [ML-27, N-(2,4-dinitro-5-aminophenyl)tryptamine]
- protection against glutamate-mediated damage to the mitochondria (in words) [1]: significantly protected
- JC-1 ratio B (+glutamate 5 mM) [1]: 1.83
- JC-1 ratio A (control conditions) [1]: 1.80
- effect on mitochondrial membrane potential of the control cells (in words) [1]: decreased
- JC-1 ratio B/A (%) [1]: 102%
- inhibition of the specific 125I-melatonin binding [2]: ~13%
- % bound at competitor concentration 10-6M [2]: 87%
- 125I-melatonin bound at competitor concentration 10-6M [2]: 426
- % bound at competitor concentration 10-7M [2]: 92%
- 125I-melatonin bound at competitor concentration 10-7M [2]: 448

Structure (SMILES): Cc1ccc2[nH]cc(CCNc3ccc([N+](=O)[O-])cc3[N+](=O)[O-])c2c1 [ML-28, N-(2,4-dinitrophenyl)-5-methyltryptamine]
- protection against glutamate-mediated damage to the mitochondria (in words) [1]: did not protect
- JC-1 ratio B (+glutamate 5 mM) [1]: 2.28
- JC-1 ratio A (control conditions) [1]: 2.77
- effect on mitochondrial membrane potential of the control cells (in words) [1]: elevated
- JC-1 ratio B/A (%) [1]: 82%
- inhibition of the specific 125I-melatonin binding [2]: ~13%
- % bound at competitor concentration 10-6M [2]: 87%
- 125I-melatonin bound at competitor concentration 10-6M [2]: 365
- % bound at competitor concentration 10-7M [2]: 91%
- 125I-melatonin bound at competitor concentration 10-7M [2]: 381

Structure (SMILES): CC(=O)Nc1cc(NCCc2c[nH]c3ccc(C)cc23)c([N+](=O)[O-])cc1[N+](=O)[O-] [ML-29, 2,4-dinitro-5-(5′-methyltryptyl)aminoacetanilide]
- protection against glutamate-mediated damage to the mitochondria (in words) [1]: without providing protection
- JC-1 ratio B (+glutamate 5 mM) [1]: 1.79
- JC-1 ratio A (control conditions) [1]: 2.28
- effect on mitochondrial membrane potential of the control cells (in words) [1]: decreased
- JC-1 ratio B/A (%) [1]: 78%
- % bound at competitor concentration 10-6M [2]: 80%
- 125I-melatonin bound at competitor concentration 10-6M [2]: 358
- % bound at competitor concentration 10-7M [2]: 90%
- 125I-melatonin bound at competitor concentration 10-7M [2]: 404

Structure (SMILES): COc1ccc2[nH]cc(CCNc3cc(NC(C)=O)c([N+](=O)[O-])cc3[N+](=O)[O-])c2c1 [ML-30, 2,4-dinitro-5-(5′-methoxytryptyl)aminoacetanilide]
- protection against glutamate-mediated damage to the mitochondria (in words) [1]: significantly protected
- JC-1 ratio B (+glutamate 5 mM) [1]: 2.13
- JC-1 ratio A (control conditions) [1]: 1.83
- effect on mitochondrial membrane potential of the control cells (in words) [1]: decreased
- JC-1 ratio B/A (%) [1]: 116%
- % bound at competitor concentration 10-6M [2]: 80%
- 125I-melatonin bound at competitor concentration 10-6M [2]: 409
- % bound at competitor concentration 10-7M [2]: 96%
- 125I-melatonin bound at competitor concentration 10-7M [2]: 488

Structure (SMILES): Cc1ccc2[nH]cc(CCNc3cc(N)c([N+](=O)[O-])cc3[N+](=O)[O-])c2c1 [ML-31, N-(2,4-dinitro-5-aminophenyl)-5′-methyltryptamine]
- protection against glutamate-mediated damage to the mitochondria (in words) [1]: without providing protection
- JC-1 ratio B (+glutamate 5 mM) [1]: 1.57
- JC-1 ratio A (control conditions) [1]: 1.93
- effect on mitochondrial membrane potential of the control cells (in words) [1]: decreased
- JC-1 ratio B/A (%) [1]: 81%
- % bound at competitor concentration 10-6M [2]: 72%
- 125I-melatonin bound at competitor concentration 10-6M [2]: 334
- % bound at competitor concentration 10-7M [2]: 94%
- 125I-melatonin bound at competitor concentration 10-7M [2]: 438

Structure (SMILES): COc1ccc2[nH]cc(CCNc3cc(N)c([N+](=O)[O-])cc3[N+](=O)[O-])c2c1 [ML-32, N-(2,4-dinitro-5-aminophenyl)-5′-methoxytryptamine]
- protection against glutamate-mediated damage to the mitochondria (in words) [1]: without providing protection
- JC-1 ratio B (+glutamate 5 mM) [1]: 1.76
- JC-1 ratio A (control conditions) [1]: 2.15
- effect on mitochondrial membrane potential of the control cells (in words) [1]: decreased
- JC-1 ratio B/A (%) [1]: 82%
- % bound at competitor concentration 10-6M [2]: 93%
- 125I-melatonin bound at competitor concentration 10-6M [2]: 419
- % bound at competitor concentration 10-7M [2]: 90%
- 125I-melatonin bound at competitor concentration 10-7M [2]: 408

Structure (SMILES): COc1ccc2[nH]cc(CCNC(C)=O)c2c1 [Melatonin, reference compound]
- protection against glutamate-mediated damage to the mitochondria (in words) [1]: significantly protected
- JC-1 ratio B (+glutamate 5 mM) [1]: 2.44
- JC-1 ratio A (control conditions) [1]: 2.48
- JC-1 ratio B/A (%) [1]: 98%
- inhibition of the specific 125I-melatonin binding [2]: 20%
- % bound at competitor concentration 10-6M [2]: 79%
- 125I-melatonin bound at competitor concentration 10-6M [2]: 335
- % bound at competitor concentration 10-7M [2]: 89%
- 125I-melatonin bound at competitor concentration 10-7M [2]: 377
